Values quoted from earlier work as cited in patent CN103919735A, “一种盐酸坦索罗辛缓释微丸及其制备方法” (Pharmaceutical (wuhan) Co Ltd, priority 2014, dated 2014).

Tested on: BPH patients [BPH患者]
Conditions: for relief of LUTS caused by BPH (in words): large number of studies

## CCOc1ccccc1OCCN[C@H](C)Cc1ccc(OC)c(S(N)(=O)=O)c1 [盐酸坦索罗辛]
Clinical study of 6 years in BPH, stated for α1 receptor blockers
  efficacy in long-term use (in words): 能够维持稳定的疗效
clinical, BPH
  time to symptom improvement after treatment: 48 h
  relief of LUTS caused by BPH (in words): 均能有效缓解

## CC(C)(C)NC(=O)[C@H]1CC[C@H]2[C@@H]3CC[C@H]4NC(=O)C=C[C@]4(C)[C@H]3CC[C@]12C [非那雄胺]
  relief of LUTS caused by BPH (in words): 均能有效缓解
